Patent US5521069A, “Genomic DNA exons having exons encoding human pituitary adenylate cyclase activity peptide with 38 amino acids residues(PACAP38) and a promoter thereof” (Takeda Chemical Industries, Ltd., priority 1990, dated 1996)
Where no end group is shown, it is not given here.

What was measured:
[1] = Hypotensive activity in anesthetized male Wistar rats; format: in vivo, rat; details: nembutal anesthesia
Method: Using male Wistar rats having a body weight of 350 g under nembutal anesthesia, the hypotensive activity was measured.

rat pituicytes = experiment: Adenylate Cyclase Stimulating Test in Rat Pituicyte Culture; format: cell-based; details: Experiment 2, blank 1.35 ± 0.05
Source text: The amino acid sequence of sheep PACAP38 is believed to be identical to that of human PACAP38. […] The minimum effective amount was 10^-12 M, and it was shown that the activity increased with increasing concentration.

## PACAP38 NH2 (HSDGIFTDSYSRYRKQMAVKKYLAAVLGKRYKQRVKNK-NH2; UniProt P18509 132-169, looked up)
[1]; dosage 0.3 n mole/kg
  Hypotensive activity (decrease from normal value): 3.2 ± 1.9 mm Hg
[1]; dosage 1.0 n mole/kg
  Hypotensive activity (decrease from normal value): 17.4 ± 2.4 mm Hg
[1]; dosage 3.0 n mole/kg
  Hypotensive activity (decrease from normal value): 29.8 ± 3.6 mm Hg

## PACAP27 NH2 [Syn.27p-NH2]
Rat pituicytes; 10^-7 M
  cAMP (M ± SEM): 9.20 ± 0.20 p mol/ml
Rat pituicytes; 10^-8 M
  cAMP (M ± SEM): 9.20 ± 0.00 p mol/ml
Rat pituicytes; 10^-9 M
  cAMP (M ± SEM): 7.90 ± 0.30 p mol/ml
Rat pituicytes; 10^-10 M
  cAMP (M ± SEM): 4.00 ± 0.20 p mol/ml
Rat pituicytes; 10^-11 M
  cAMP (M ± SEM): 2.55 ± 0.15 p mol/ml
Rat pituicytes; 10^-12 M
  cAMP (M ± SEM): 2.05 ± 0.15 p mol/ml
[1]; dosage 0.3 n mole/kg
  Hypotensive activity (decrease from normal value): 14.5 ± 3.1 mm Hg
[1]; dosage 1.0 n mole/kg
  Hypotensive activity (decrease from normal value): 51.9 ± 9.6 mm Hg
[1]; dosage 3.0 n mole/kg
  Hypotensive activity (decrease from normal value): 4.1 mm Hg
